Test results taken from patent US12338296B2, “Peptides and compounds that bind to elongation initiation factor 4E” (AGENCY FOR SCIENCE, TECHNOLOGY AND RESEARCH, priority 2019, dated 2025).
“Also recorded” adds a separate entry of the source.

How the values were obtained:
[1] = molecular target: T1, eIF4E (Homo sapiens, UniProt P06730); assay: Tryptophan quenching experiments; assay type: binding; settings: 1 μM eIF4E, 0.01-20 μM titrant, excitation 290 nm, emission 355 nm; FIG. 2
T1 construct: made in house; Plasmid and cells were provided by Cyclacel Ltd., Dundee
T1 sequence (P06730 whole entry): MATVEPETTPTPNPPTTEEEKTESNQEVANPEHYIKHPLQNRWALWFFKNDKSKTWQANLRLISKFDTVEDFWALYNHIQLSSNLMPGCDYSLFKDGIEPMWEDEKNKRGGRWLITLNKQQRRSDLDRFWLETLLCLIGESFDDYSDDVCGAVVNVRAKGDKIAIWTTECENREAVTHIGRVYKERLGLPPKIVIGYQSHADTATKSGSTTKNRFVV
Experimental: Tryptophan Quenching Experiments
Tryptophan quenching experiments were performed using an EnVision® multiplate reader with black matte 96-well plates. […] Concentrations tested ranged from 0.01-20 μM. Samples were excited with UV light at 290 nm to minimise contribution from tyrosine fluorescence. Tryptophan was measured at an emission wavelength of 355 nm.

[2] = molecular target: T2, eIF4E cap-binding site (Homo sapiens, UniProt P06730); assay: Competitive fluorescence polarization, cap analogue binding assessment (FAM labelled m7GTP); settings: eIF4E 250 nM, labelled m7GTP 50 nM; FIG. 1B; listed as EE-02
T2 construct: made in house; Plasmid and cells were provided by Cyclacel Ltd., Dundee
T2 sequence (P06730 whole entry): as above
Experimental: Apparent Kd values were determined by fitting the experimental data to the equations shown below:
[formula] [L]st and [L]t denote labeled ligand and total unlabeled ligand input concentrations, respectively. Kd2 is the dissociation constant of the interaction between the unlabelled ligand and the protein. In all competitive types of experiments, it is assumed that [P]t>[L]st, otherwise considerable amounts of free labeled ligand would always be present and would interfere with measurements. Kd1 is the apparent Kd for the labeled peptide used in the respective experiment. […] Readings were carried out with a Envision Multi-label Reader (PerkinElmer). Experiments were carried out in PBS (2.7 mM KCl, 137 mM NaCl, 10 mM NaHPO4 and 2 mM KHPO4 (pH 7.4)), 3% DMSO (v/v) and 0.1% Tween 20 buffer. All titrations were carried out in triplicate. Curve-fitting was carried out using Prism 4.0 (GraphPad). […]
From these initial results it was predicted the new peptide motif might interact with eIF4E either via a different binding pose at the eIF4G binding site, or at the cap-binding site or elsewhere on the protein. The binding site was initially delineated on eIF4E by using two types of competitive fluorescence polarization experiments, one of which utilised a FAM labelled cap-analogue and the other that used a FAM labelled eIF4G1 derived peptide (FIG. 1).

[3] = molecular target: T1, eIF4E; assay: Fluorescence anisotropy direct titration of eIF4E against FAM labelled tracers; settings: 50 nM tracer, eIF4E titrated, 1:1 binding model; read-out: Kd for interaction of labelled tracer with eIF4E
Text: Fluorescence Anisotropy Assays and Kd Determination.
Both were used later for subsequent Kd determination in competition experiments.

Kd [3]	Molecule	tryptophan quenching of eIF4E [1]	displacement of fluorescently labelled m7GTP from eIF4E [2]
	CSCC[C@@H]1NC(=O)[C@H](CCC(=O)O)NC(=O)[C@@H](NC(=O)[C@H](C)N)CSSC[C@@H](C(=O)NCC(N)=O)NC(=O)[C@H](CC(=O)O)NC(=O)[C@H](CCC(N)=O)NC(=O)[C@H](Cc2ccccc2)NC(=O)[C@H](Cc2ccccc2)NC(=O)CNC1=O [EE-2]	significantly different profile to m7GTP/m7GDP	most potent peptide out of the set identified; also recorded: can displace fluorescently labelled m7GTP
149 nM	m^7GTP-6-FAM		
